Assay [1] relates to T1, GUS2.
T1 construct: full-length ORF in pEASY-Blunt E1, His-tag purified from E. coli BL21(DE3), about 55 kDa on SDS-PAGE
Kind of assay: HPLC of baicalein formed, Hanes-Woolf plot. The note with it: PBS pH 9, 45 °C, 40 min. It counts as biochemical, Scutellaria baicalensis.

Assay [2] deals with T2, GUS1.
T2 construct: full-length ORF in pEASY-Blunt E1, His-tag purified from E. coli BL21(DE3), about 60 kDa on SDS-PAGE
Kind of assay: HPLC of baicalein formed, Hanes-Woolf plot. The format is biochemical, Scutellaria baicalensis. To be noted: PBS pH 9, 45 °C, 40 min.

`O=C(O)[C@H]1O[C@@H](Oc2cc3oc(-c4ccccc4)cc(=O)c3c(O)c2O)[C@H](O)[C@@H](O)[C@@H]1O` [baicalin]: the Km – broadly, the concentration of substrate that gives half-maximal velocity – in assay [1] was found to be 0.2732 mg/mL; in assay [2], 0.2826 mg/mL.

Source of the values: PMC11898752, “Functional Characterization of β-Glucuronidase Genes Involved in Baicalein Biosynthesis from Scutellaria baicalensis Based on Transcriptome Analysis” (International Journal of Molecular Sciences, 2025).
